Experimental data published in paper PMC11820055, “Human Pharmacokinetic Profiling and Comparative Analysis of Mangiferin and Its Monosodium Derivative from Mangifera indica Extracts Using UHPLC-MS/MS with ^1H NMR and MALDI-TOF Confirmation” (Molecules, 2025).
In brackets after ≈: the same amount, converted by molar mass. Where a name gives a salt, the structure may show the parent alone. Read-outs that look alike come from different tables or passages of the source.

Key:
[1] = parameters: method as in PMID 26434292; settings: human plasma, mangiferin >90% purity, cited from earlier work
[2] = Stability of mangiferin in human plasma QC samples; assay type: in vitro ADME; settings: for Stability (%, Mean ± RSD) Autosampler / Stability (%, Mean ± RSD) Room Temp. / Stability (%, Mean ± RSD) Freeze–Thaw: human plasma QC, n = 6; for Stability (%, Mean ± RSD) Autosampler: autosampler 4 h at 12 °C; for Stability (%, Mean ± RSD) Room Temp.: room temperature for 4 h; for Stability (%, Mean ± RSD) Freeze–Thaw: three cycles of freezing (−80 °C) and thawing (20 °C)
Protocol: Quality control (QC) samples were prepared in the same manner and evaluated at low, medium, and high concentrations: 50, 500, and 1000 ng/mL. Blank plasma samples were also included in the injection series to account for any potential carryover. The stability of mangiferin in human plasma was evaluated by analyzing the same three levels of QC samples (n = 6) after storage at room temperature for 4 h, in the autosampler for 4 h at 12 °C, and after three cycles of freezing (−80 °C) and thawing (20 °C).

[3] = parameters: method as in earlier work; settings: pure mangiferin; cited from earlier work
[4] = cited from earlier work
[5] = parameters: method as in doi:10.1155/2019/9272710; settings: male Sprague Dawley rats; cited from earlier work
[6] = tested on: mice; settings: cited from earlier work
[7] = tested on: rats; settings: dose of 400 mg of the purified salt; cited from earlier work

Structure (SMILES): O=c1c2cc(O)c(O)cc2oc2cc(O)c([C@@H]3O[C@H](CO)[C@@H](O)[C@H](O)[C@H]3O)c(O)c12 [Mangiferin]
- Cmax ([1]; 100 mg oral dose): 19.94 ng/mL
- Cmax ([1]; 900 mg oral dose): 38.64 ng/mL
- stability throughout the analytical process ([2]; human plasma QC samples): stable
- Stability (%, Mean ± RSD) Autosampler ([2]; 1.000 ng/mL as printed): 101.63 ± 8.50%
- Stability (%, Mean ± RSD) Room Temp. ([2]; 1.000 ng/mL as printed): 101.75 ± 8.11%
- Stability (%, Mean ± RSD) Freeze–Thaw ([2]; 1.000 ng/mL as printed): 102.64 ± 1.05%
- Stability (%, Mean ± RSD) Autosampler ([2]; 50 ng/mL): 109.92 ± 2.77%
- Stability (%, Mean ± RSD) Room Temp. ([2]; 50 ng/mL): 103.10 ± 3.66%
- Stability (%, Mean ± RSD) Freeze–Thaw ([2]; 50 ng/mL): 108.60 ± 3.87%
- Stability (%, Mean ± RSD) Autosampler ([2]; 500 ng/mL): 102.02 ± 8.81%
- Stability (%, Mean ± RSD) Room Temp. ([2]; 500 ng/mL): 101.27 ± 9.08%
- Stability (%, Mean ± RSD) Freeze–Thaw ([2]; 500 ng/mL): 101.68 ± 0.91%
- aqueous solubility [3]: 111 µg/mL (≈ 263 µM)
- increase of exposure on inhibition of the transporter P-gp ([4]; pure mangiferin): approximately threefold

Structure (SMILES): O=c1c2cc(O)c(O)cc2oc2cc(O)cc(O)c12 [norathyriol]
- Tmax ([4]; in vivo): ~15 h
- absorption of norathyriol as fraction of the mangiferin dose ([4]; in vivo): approximately 0.1%

Structure (SMILES): O=c1c2cc(O)c(O)cc2oc2cc(O)c([C@@H]3O[C@H](CO)[C@@H](O)[C@H](O)[C@H]3O)c(O)c12 [mangiferin monosodium salt, Monosodium mangiferin]
- relative bioavailability of the salt vs pure mangiferin based on AUC0–∞ [5]: 5.7 times
- maximum tolerated dose (MTD) [6]: 12,000 mg/kg
- safety in rats [7]: generally safe
